According to patent US8916183B2, “Pesticidal compositions and processes related thereto” (priority 2012, dated 2014):

What was measured:
Assay type in all cases: in vivo
[1] = tested on: Green Peach Aphid (GPA) (Myzus persicae); assay: Bioassay on green peach aphid (GPA), foliar spray on cabbage seedlings; settings: green peach aphid, 200 ppm, read-out: % Mortality GPA 200 ppm
Method: Certain molecules disclosed in this document were tested against GPA using procedures described in the following example. In the reporting of the results, the “GPA Rating Table” was used (See Table Section).
Cabbage seedlings grown in 3-inch pots, with 2-3 small (3-5 cm) true leaves, were used as test substrate. The seedlings were infested with 20-50 GPA (wingless adult and nymph stages) one day prior to chemical application. Four pots with individual seedlings were used for each treatment. Test compounds (2 mg) were dissolved in 2 mL of acetone/methanol (1:1) solvent, forming stock solutions of 1000 ppm test compound. […] A hand-held aspirator-type sprayer was used for spraying a solution to both sides of […] leaves until runoff. Reference plants (solvent check) were sprayed with the diluent only containing 20% by volume of acetone/methanol (1:1) solvent. Treated plants were held in a holding room for three days at approximately 25° C. and ambient relative humidity (RH) prior to grading. Evaluation was conducted by counting the number of live aphids per plant under a microscope. […] Corrected % Control=100*(X−Y)/X • where • X=No. of live aphids on solvent check plants and • Y=No. of live aphids on treated plants
The results are indicated in the table entitled “Table 5: Biological Results” (See Table Section).

[2] = tested on: Corn Earworm (CEW) (Helicoverpa zea); assay: Bioassay on corn earworm (CEW), 128-well diet tray assay; settings: corn earworm, 50 μg/cm^2; for mortality at 50 µg/cm2: Helicoverpa zea, read-out: % Mortality CEW 50 μg/cm^2
Procedure, shortened: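 Activity was scored as percent larval mortality per well, averaged across eight wells and reported on a rating scale. Diet trays (128-well) were kept at 25° C with 14:10 light-dark for five to seven days.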

[3] = tested on: Beet Armyworm (BAW) (Spodoptera exigua); assay: Bioassay on beet armyworm (BAW), 128-well diet tray assay; settings: beet armyworm, 50 μg/cm^2; for mortality at 50 µg/cm2: Spodoptera exigua, read-out: % Mortality BAW 50 μg/cm^2

Row | SMILES | mortality at 200 ppm [1] [%] | % Mortality CEW 50 μg/cm^2 [2] | % Mortality BAW 50 μg/cm^2 [3] | mortality at 50 µg/cm2 [2] [%] | mortality at 50 µg/cm2 [3] [%]
1 | COc1cc(C)c(/N=C(/N/N=C/c2ccc(-c3ncn(-c4ccc(OC(F)(F)F)cc4)n3)cc2)SCC(=O)O)c(C)c1.[Na+] [Compound 68C, 2-(((Z)-((4-methoxy-2,6-dimethylphenyl)imino)((E)-2-(4-(1-(4-(trifluoromethoxy)phenyl)-1H-1,2,4-triazol-3-yl)benzylidene)hydrazinyl)methyl)-thio)acetic acid sodium salt] | 0 to 80 | A (50-100) | A (50-100) | – | –
2 | O=C1CS/C(=N\N=C\c2ccc(-c3ncn(-c4ccc(OC(F)(F)F)cc4)n3)cc2)N1c1c(Cl)cccc1Cl [Compound 70C] | 0 | – | – | 50 to 100 | 50 to 100
3 | Cc1cccc(C)c1N1C(=O)CS/C1=N\N=C\c1ccc(-c2ncn(-c3ccc(OC(F)(F)F)cc3)n2)cc1 [Compound 71C] | 0 | – | – | 50 to 100 | 50 to 100
4 | Cc1cc(C)c(N2C(=O)CS/C2=N\N=C\c2ccc(-c3ncn(-c4ccc(OC(F)(F)F)cc4)n3)cc2)c(C)c1 [Compound 72C] | 0 to 80 | – | – | 50 to 100 | 50 to 100
5 | CCN(CC)c1ccc(-c2cs/c(=N\N=Cc3ccc(-c4ncn(-c5ccc(OC(F)(F)F)cc5)n4)cc3)n2-c2c(C)cccc2C)cc1 [Compound 74C] | 0 | – | – | 50 to 100 | 50 to 100
6 | Cc1cccc(C)c1-n1c(-c2nccs2)cs/c1=N\N=Cc1ccc(-c2ncn(-c3ccc(OC(F)(F)F)cc3)n2)cc1 [Compound 75C] | 0 to 80 | – | – | 50 to 100 | 50 to 100
7 | Cc1cccc(C)c1-n1c(-c2cc(-c3ccc(Cl)cc3)no2)cs/c1=N\N=C\c1ccc(-c2ncn(-c3ccc(OC(F)(F)F)cc3)n2)cc1 [Compound 76C] | 0 to 80 | – | – | 50 to 100 | 50 to 100
8 | Cc1cccc(C)c1-n1c(-c2ccc(C(=O)O)cc2)cs/c1=N\N=Cc1ccc(-c2ncn(-c3ccc(OC(F)(F)F)cc3)n2)cc1 [Compound 77C] | 0 to 80 | – | – | 50 to 100 | 50 to 100
9 | Cc1cccc(C)c1-n1c(-c2ccc(OC(F)(F)F)cc2)cs/c1=N\N=Cc1ccc(-c2ncn(-c3ccc(OC(F)(F)F)cc3)n2)cc1 [Compound 78C] | 0 to 80 | – | – | 50 to 100 | 50 to 100
10 | Cc1cccc(C)c1-n1c(-c2ccc(C(F)(F)F)cc2)cs/c1=N\N=Cc1ccc(-c2ncn(-c3ccc(OC(F)(F)F)cc3)n2)cc1 [Compound 79C] | 0 to 80 | – | – | 50 to 100 | 50 to 100
11 | COc1cc(C)c(-n2c(C(=O)O)cs/c2=N\N=Cc2ccc(-c3ncn(-c4ccc(OC(F)(F)F)cc4)n3)cc2)c(C)c1 [Compound 80C] | 0 | – | – | 50 to 100 | 50 to 100
12 | Cc1cccc(C)c1/N=C1\SCC(=O)N1/N=C/c1ccc(-c2ncn(-c3ccc(OC(F)(F)F)cc3)n2)cc1 [Compound 81C] | 0 | – | – | 50 to 100 | 50 to 100
13 | CC1S/C(=N\N=C\c2ccc(-c3ncn(-c4ccc(OC(F)(F)F)cc4)n3)cc2)N(c2ccccc2C(C)C)C1=O (stereo not drawn) [Compound 88C] | 0 to 80 | – | – | 50 to 100 | 50 to 100
14 | O=C1CS/C(=N\N=C\c2ccc(-c3ncn(-c4ccc(OC(F)(F)F)cc4)n3)cc2)N1c1c(F)cccc1F [Compound 89C] | 0 | – | – | 50 to 100 | 50 to 100
15 | COc1ccccc1N1C(=O)CS/C1=N\N=C\c1ccc(-c2ncn(-c3ccc(OC(F)(F)F)cc3)n2)cc1 [Compound 92C] | 0 to 80 | – | – | 50 to 100 | 50 to 100
16 | Cc1cccc(Cl)c1N1C(=O)CS/C1=N\N=C\c1ccc(-c2ncn(-c3ccc(OC(F)(F)F)cc3)n2)cc1 [Compound 93C] | 0 | – | – | 50 to 100 | 50 to 100
17 | CCc1ccccc1N1C(=O)CS/C1=N\N=C\c1ccc(-c2ncn(-c3ccc(OC(F)(F)F)cc3)n2)cc1 [Compound 94C] | 0 | – | – | 50 to 100 | 50 to 100
18 | O=C1CS/C(=N\N=C\c2ccc(-c3ncn(-c4ccc(OC(F)(F)F)cc4)n3)cc2)N1c1c(F)cccc1Cl [Compound 95C] | 0 to 80 | – | – | 50 to 100 | 50 to 100
19 | O=C1CS/C(=N\N=C\c2ccc(-c3ncn(-c4ccc(OC(F)(F)F)cc4)n3)cc2)N1c1ccccc1-c1ccccc1 [Compound 96C] | 0 to 80 | – | – | 50 to 100 | 50 to 100

Row | SMILES | mortality at 200 ppm [1] [%] | % Mortality CEW 50 μg/cm^2 [2] | % Mortality BAW 50 μg/cm^2 [3] | mortality at 50 µg/cm2 [2] [%] | mortality at 50 µg/cm2 [3] [%]
20 | CCC(C)c1ccccc1N1C(=O)CS/C1=N\N=C\c1ccc(-c2ncn(-c3ccc(OC(F)(F)F)cc3)n2)cc1 (stereo not drawn) [Compound 108C] | 0 | – | – | 50 to 100 | 50 to 100
21 | CCc1cccc(C)c1N1C(=O)CS/C1=N\N=C\c1ccc(-c2ncn(-c3ccc(OC(F)(F)F)cc3)n2)cc1 [Compound 111C] | 0 to 80 | – | – | 50 to 100 | 50 to 100
22 | O=C1CS/C(=N\N=C\c2ccc(-c3ncn(-c4ccc(OC(F)(F)F)cc4)n3)cc2)N1c1ccccc1C1CC1 [Compound 112C] | 0 to 80 | – | – | 50 to 100 | 50 to 100
23 | Cc1cccnc1N1C(=O)CS/C1=N\N=C\c1ccc(-c2ncn(-c3ccc(OC(F)(F)F)cc3)n2)cc1 [Compound 117C] | 0 | – | – | 50 to 100 | 50 to 100
24 | Cc1cnccc1N1C(=O)CS/C1=N\N=C\c1ccc(-c2ncn(-c3ccc(OC(F)(F)F)cc3)n2)cc1 [Compound 118C] | 0 | – | – | 50 to 100 | 50 to 100
25 | CC(C)Cc1ccccc1N1C(=O)CS/C1=N\N=C\c1ccc(-c2ncn(-c3ccc(OC(F)(F)F)cc3)n2)cc1 [Compound 119C] | 0 | – | – | 50 to 100 | 50 to 100
26 | CC(C)=Cc1ccccc1N1C(=O)CS/C1=N\N=C\c1ccc(-c2ncn(-c3ccc(OC(F)(F)F)cc3)n2)cc1 [Compound 121C] | 0 to 80 | – | – | 50 to 100 | 50 to 100
27 | CC1S/C(=N\N=C\c2ccc(-c3ncn(-c4ccc(OC(F)(F)F)cc4)n3)cc2)N(c2c(F)cccc2F)C1=O (stereo not drawn) [Compound 131C] | 0 | – | – | 50 to 100 | 50 to 100
28 | CC(C)c1ccccc1N1CCS/C1=N\N=C\c1ccc(-c2ncn(-c3ccc(OC(F)(F)F)cc3)n2)cc1 [Compound 132C] | 0 to 80 | – | – | 50 to 100 | 50 to 100
29 | CCc1ccccc1N1CCS/C1=N\N=C\c1ccc(-c2ncn(-c3ccc(OC(F)(F)F)cc3)n2)cc1 [Compound 133C] | 0 to 80 | – | – | 50 to 100 | 50 to 100
30 | CCC(C)c1ccccc1N1CCS/C1=N\N=C\c1ccc(-c2ncn(-c3ccc(OC(F)(F)F)cc3)n2)cc1 (stereo not drawn) [Compound 135C] | 0 | – | – | 50 to 100 | 50 to 100
31 | CCc1cccc(C)c1N1CCS/C1=N\N=C\c1ccc(-c2ncn(-c3ccc(OC(F)(F)F)cc3)n2)cc1 [Compound 136C] | 0 | – | – | 50 to 100 | 50 to 100
32 | COc1ccc(N2CCS/C2=N\N=C\c2ccc(-c3ncn(-c4ccc(OC(F)(F)F)cc4)n3)cc2)c(C)c1 [Compound 137C] | 0 | – | – | 50 to 100 | 50 to 100
33 | COc1cc(C)c(N2CCS/C2=N\N=C\c2ccc(-c3ncn(-c4ccc(OC(F)(F)F)cc4)n3)cc2)c(C)c1 [Compound 138C] | 0 to 80 | – | – | 50 to 100 | 50 to 100
34 | Cc1cc(C)c(N2CCS/C2=N\N=C\c2ccc(-c3ncn(-c4ccc(OC(F)(F)F)cc4)n3)cc2)c(C)c1 [Compound 139C] | 0 to 80 | – | – | 50 to 100 | 50 to 100
35 | COc1ccccc1N1CCS/C1=N\N=C\c1ccc(-c2ncn(-c3ccc(OC(F)(F)F)cc3)n2)cc1 [Compound 140C] | 0 to 80 | – | – | 50 to 100 | 50 to 100
36 | Cc1ccccc1N1CCS/C1=N\N=C\c1ccc(-c2ncn(-c3ccc(OC(F)(F)F)cc3)n2)cc1 [Compound 141C] | 0 | – | – | 50 to 100 | 50 to 100
37 | Cc1cccc(C)c1N1CCS/C1=N\N=C\c1ccc(-c2ncn(-c3ccc(OC(F)(F)F)cc3)n2)cc1 [Compound 142C] | 0 | – | – | 50 to 100 | 50 to 100
38 | FC(F)(F)Oc1ccc(-n2cnc(-c3ccc(/C=N/N=C4\SCCN4c4ccccc4C4CC4)cc3)n2)cc1 [Compound 145C] | 0 to 80 | – | – | 50 to 100 | 50 to 100
